Patent US6458981B1, “Composition and method for preparing amino acid chelate hydroxides free of interfering ions” (Albion International, Inc., priority 2000, dated 2002)

How the values were obtained:
[1] = Rubbing a portion between thumb and finger (hygroscopicity); format: physicochemical; conditions: rubbed between the thumb and finger; moisture from thumb, finger and surrounding air
Text: Sample 1 was further compared to Sample 2 by rubbing a portion of each between the thumb and finger.

Particle size = format: physicochemical
Text: The particle size found in Sample 1 and Sample 2 was about 70 mesh.

[2] = Shaking the powder in a plastic bag (electrostatic behaviour); format: physicochemical; conditions: shaken in a plastic bag
Method: A 10:1 mixture of copper glycinate to terra alba (CaSO4) [Sample 1] was prepared and shaken together in a plastic bag. Next, a pure copper glycinate without the presence of terra alba [Sample 2] was also prepared and shaken in a plastic bag.

[3] = Addition to stimulated gastric solution (stability in an acid environment); format: physicochemical; conditions: added to a stimulated gastric solution
Text: Sample 1 was similarly added to a stimulated gastric solution.

[4] = zero ionic strength; reaction M^2+ + (Gly)^- <-> M(Gly)^+; cited from earlier work

| Compound | hygroscopicity: balling up with moisture [1] | particle size (Particle size) | electrostatic behaviour: product sticking to the walls of the bag [2] | color change in stimulated gastric solution (stability in acid environment) [3] | log of the equilibrium constant [4] |
| --- | --- | --- | --- | --- | --- |
| NCC(=O)[O-].NCC(=O)[O-].[Cu+2] [Sample 2, copper glycinate] | quickly balled up with moisture | about 70 mesh | a blue haze of product stuck the walls of the bag | caused the product to change color | – |
| copper | – | – | – | – | 8.56 |
